Data reported in publication PMC12881670, “Investigation into ligand selectivity and bias at the formyl peptide receptor family” (The Journal of Pharmacology and Experimental Therapeutics, 2025).
Where a SMILES comes first, the peptide text is derived from it. The star is where a group is joined. For = O=C*

What was measured:
Hs_FPR2 [1] = target: T1, Hs_FPR2 (Homo sapiens, UniProt P25090); assay: BRET receptor-RLuc8 interaction with Arrestin 3-YFP; format: cell-based
T1 construct: expressed in transfected cells
T1 sequence (P25090 1-351): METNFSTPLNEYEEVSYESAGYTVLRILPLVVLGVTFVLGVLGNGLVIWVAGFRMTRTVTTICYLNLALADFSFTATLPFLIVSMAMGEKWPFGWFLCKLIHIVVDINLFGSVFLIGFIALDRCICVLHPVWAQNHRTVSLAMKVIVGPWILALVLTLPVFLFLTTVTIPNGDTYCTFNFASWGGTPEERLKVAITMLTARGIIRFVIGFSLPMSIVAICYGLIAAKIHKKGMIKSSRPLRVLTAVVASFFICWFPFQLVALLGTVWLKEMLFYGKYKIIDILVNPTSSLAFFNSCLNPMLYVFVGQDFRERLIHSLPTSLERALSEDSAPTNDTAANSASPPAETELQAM
Protocol: (§1) BRET1 assays to measure FPR interaction with Venus-mGsi and Arrestin 3-yellow fluorescent protein (YFP) were performed as previously described.[31]^,[32] Briefly, all FPRs C-terminally fused to Renilla Luciferase (donor, RLuc8) were transiently transfected along with either Venus-mGsi or YFP-Arrestin 3 (acceptor) at a ratio of 1:4. 24 hours post transfection, cells were replated into white-walled, 96-well plates and cultured for a further 24–48 hours. On the day of experimentation, growth media was aspirated and replaced with 80 μl Hanks Buffered Saline Solution and equilibrated for 30 minutes. Coelenterazine h was added to each well to a final concentration of 5 μM for 5 minutes before the addition of each compound, and the plate was incubated for a further 10 minutes at 37 °C before being read on a ClarioStar Plus, with luminescence measured at 480/20 nm (donor) and 530/20 (acceptor). The BRET ratio (acceptor/donor) was determined, and the background (untreated) subtracted to give the N-BRET value.
(§2) All data were analyzed using GraphPad Prism using the nonlinear regression log(agonist) versus response (3 parameters) function for all assays, except binding, which was analyzed using the One site-FitlogIC50 function. Bias calculations were carried out following IUPHAR guidelines as described,[27]^,[37] and data were presented as the Δ Activity ratio (Log[EmaxB/EC50B])-(Log[EmaxA/EC50A]).

Mm_Fpr2 [2] = target: T2, Mm_Fpr2 (Mus musculus, UniProt O88536); assay: as above; format: cell-based
T2 construct: expressed in transfected cells
T2 sequence (O88536 1-351): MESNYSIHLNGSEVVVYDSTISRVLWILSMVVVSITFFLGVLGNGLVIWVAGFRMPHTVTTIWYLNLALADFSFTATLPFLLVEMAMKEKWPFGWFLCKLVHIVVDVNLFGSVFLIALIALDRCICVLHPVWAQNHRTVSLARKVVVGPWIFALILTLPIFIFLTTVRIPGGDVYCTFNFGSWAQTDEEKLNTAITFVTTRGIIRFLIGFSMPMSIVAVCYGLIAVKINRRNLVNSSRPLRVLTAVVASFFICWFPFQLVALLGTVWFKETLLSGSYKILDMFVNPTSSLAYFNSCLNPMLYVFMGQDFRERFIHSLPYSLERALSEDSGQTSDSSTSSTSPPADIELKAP
Protocol: as §1, §2

Hs_FPR2 [3] = target: T1, Hs_FPR2; assay: BRET receptor-RLuc8 interaction with Venus-mGsi; format: cell-based
Protocol: as §1, §2

Mm_Fpr2 [4] = target: T2, Mm_Fpr2; assay: BRET receptor-RLuc8 interaction with Venus-mGsi; format: cell-based
Protocol: as §1, §2

Mm_Fpr1 [5] = target: T3, Mm_Fpr1 (Mus musculus, UniProt P33766); assay: BRET receptor-RLuc8 interaction with Venus-mGsi; format: cell-based
T3 construct: expressed in transfected cells
T3 sequence (P33766 1-364): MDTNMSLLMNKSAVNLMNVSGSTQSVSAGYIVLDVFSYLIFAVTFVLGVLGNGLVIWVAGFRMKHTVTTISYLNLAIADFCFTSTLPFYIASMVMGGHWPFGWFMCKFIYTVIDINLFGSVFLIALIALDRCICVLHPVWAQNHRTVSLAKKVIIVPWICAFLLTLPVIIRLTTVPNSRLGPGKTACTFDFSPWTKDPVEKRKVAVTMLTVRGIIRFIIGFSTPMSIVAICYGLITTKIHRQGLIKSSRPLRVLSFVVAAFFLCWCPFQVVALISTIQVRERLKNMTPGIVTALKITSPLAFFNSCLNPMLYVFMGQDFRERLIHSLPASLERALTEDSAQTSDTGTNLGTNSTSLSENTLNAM
Protocol: as §1, §2

Mm_Fpr2 [6] = target: T2, Mm_Fpr2; assay: Internalization of FLAG-tagged receptors by flow cytometry; format: cell-based; set-up: Emax: dose or concentration left out as unconfirmed
Protocol: (§3) Internalization of FPRs was measured by flow cytometry.[30] Briefly, cells were incubated with Alexa Fluor 657 conjugated M1 antiflag antibody (Sigma-Aldrich Cat# F3040, RRID:AB_439712) for 30 minutes at 37 °C to label surface receptors. Cells were then incubated with the indicated concentration of ligand before washing in PBS/0.04% EDTA to remove any remaining surface antibody. Remaining fluorescence was then measured using flow cytometry on either a BD FACScalibur or Attune, recording 5000 gated events. […] As a control, some samples were left untreated, and “strip only” was measured as a readout of constitutive endocytosis, and this value was subtracted from the data. Vehicle control (0.1% DMSO) had no effect on internalization of receptors.
as §2

Mm_Fpr1 [7] = target: T3, Mm_Fpr1; assay: as above; format: cell-based; set-up: Emax: dose or concentration left out as unconfirmed
Protocol: as §3, §2

Hs_FPR2 [8] = target: T1, Hs_FPR2; assay: ERK1/2 phosphorylation by Western blotting; format: cell-based
Protocol: (§4) ERK phosphorylation was detected by Western blotting as previously described.[30] Briefly, HEK293 cells stably expressing FLAG-tagged FPRs were plated into 12-well culture plates until 90% confluent. On the day of the experiment, culture media was replaced with serum-free Dulbecco’s modified Eagle’s medium and incubated for 2 hours before stimulation with the indicated compounds. After 7 minutes, the media was removed and stimulation terminated by the addition of 100 μl sample buffer (0.5% SDS, Tris (pH 6.8), glycerol, at >90 °C).
as §2

Mm_Fpr2 [9] = target: T2, Mm_Fpr2; assay: ERK1/2 phosphorylation by Western blotting; format: cell-based
Protocol: as §4, §2

Hs_FPR2 [10] = target: T1, Hs_FPR2; assay: Internalization of FLAG-tagged receptors by flow cytometry; format: cell-based; set-up: Emax: dose or concentration left out as unconfirmed
Protocol: (§5) Internalization of FPRs was measured by flow cytometry.[30] Briefly, cells were incubated with Alexa Fluor 657 conjugated M1 antiflag antibody (Sigma-Aldrich Cat# F3040, RRID:AB_439712) for 30 minutes at 37 °C to label surface receptors. Cells were then incubated with the indicated concentration of ligand before washing in PBS/0.04% EDTA to remove any remaining surface antibody. Remaining fluorescence was then measured using flow cytometry on either a BD FACScalibur or Attune, recording 5000 gated events. […] As a control, some samples were left untreated, and “strip only” was measured as a readout of constitutive endocytosis, and this value was subtracted from the data.
as §2

Hs_FPR1 = target: T4, Hs_FPR1 (Homo sapiens, UniProt P21462); assay: as above; format: cell-based; set-up: Emax: dose or concentration left out as unconfirmed; conditions: Hs_FPR1, 30 min, relative to 1 μM WKYMVm
T4 construct: expressed in transfected cells
T4 sequence (P21462 1-350): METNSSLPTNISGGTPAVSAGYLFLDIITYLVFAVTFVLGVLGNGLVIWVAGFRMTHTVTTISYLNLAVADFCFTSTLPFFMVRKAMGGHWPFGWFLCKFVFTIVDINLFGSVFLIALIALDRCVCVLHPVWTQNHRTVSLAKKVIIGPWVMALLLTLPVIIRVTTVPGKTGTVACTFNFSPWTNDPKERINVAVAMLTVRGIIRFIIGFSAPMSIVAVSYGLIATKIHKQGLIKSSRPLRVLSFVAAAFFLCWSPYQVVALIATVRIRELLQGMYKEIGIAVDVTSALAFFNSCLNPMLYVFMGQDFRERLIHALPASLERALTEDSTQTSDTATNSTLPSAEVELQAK
Protocol: as §5, §2

[11] = test system: formyl peptide receptor family (Hs_FPR1, Hs_FPR2, Mm_Fpr1, Mm_Fpr2); assay: Summary of main findings: receptor subtype selectivity and ligand bias across all readouts; set-up: species or system human and mouse
Description: To determine ligand bias, a reference ligand is required, that is, “balanced” for the pathways tested.[37] […] We then used measurements of the activity ratio (Log (Emax/EC50)) for each receptor, ligand, and pathway in an attempt to observe any ligand bias (Fig. 6).

Emax (Hs_FPR2 [1]): 51.8%
Emax (Mm_Fpr2 [2]): 12.1%
Emax (Hs_FPR2 [3]): 44.4%
Emax (Mm_Fpr2 [4]): 25%
Emax (Mm_Fpr1 [5]): -8.19%
Emax (Mm_Fpr2 [6]): 43.9%
Emax (Mm_Fpr1 [7]): 7.39%
Emax (Hs_FPR2 [8]): 93.9%
Emax (Mm_Fpr2 [9]): 169%
Emax (Hs_FPR2 [10]): 63.3%
Bias ([11]; summary grade of ligand bias relative to WKYMVm, key not given): No
Notes ([11]; summary of main findings, in words): Partial agonist
Structure (SMILES): CC[C@H](C)[C@H](NC(=O)[C@H](CC(C)C)NC(=O)[C@H](CCCCN)NC(=O)[C@H](CCSC)NC(=O)[C@H](CC(C)C)NC(=O)[C@@H]1CCCN1C(=O)[C@H](CC(N)=O)NC(=O)[C@@H](NC(=O)[C@H](CCCCN)NC(=O)[C@H](CCCNC(=N)N)NC(=O)[C@H](CCSC)NC(=O)[C@@H]1CCCN1C(=O)[C@@H](NC(=O)[C@H](CCSC)NC=O)[C@@H](C)O)[C@@H](C)CC)C(=O)N[C@@H](CC(N)=O)C(=O)O [MCT-2, Formyl-MTPMRKINPLMKLIN] (For-MTPMRKINPLMKLIN-OH)
agonist-induced internalization (words) (Mm_Fpr1 [7]; Mm_Fpr1, 30 min, relative to 1 μM WKYMVm): failed to show appreciable internalization
agonist-induced internalization (words) (Hs_FPR1): failed to show appreciable internalization
